Data reported in ChEMBL document CHEMBL1201862, “PubChem BioAssay data set” (2004).
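Following 48 hours of exposure in 96-well plates, responses at five concentrations were used to interpolate endpoints linearly. The concentration for 50% growth inhibition is given as GI50.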 Active and inactive are the calls of the source. Cut-off read from the data, not from the text of the source: active = GI50 up to about 1.1 µM and inactive = higher.

Columns and labels:
Assay in all cases: inhibition of tumour cell growth, NCI panel, 48 h
M19-MEL = test system: M19-MEL
DMS-114 = test system: DMS-114
HOP-18 = test system: HOP-18
DMS-273 = test system: DMS-273
SNB-78 = test system: SNB-78
KM-20L2 = test system: KM-20L2
LXFL 529 = test system: LXFL 529
XF498 = test system: XF498
RXF 631 = test system: RXF 631

| Structure (SMILES) | GI50 (M19-MEL) | GI50 (DMS-114) | GI50 (HOP-18) | GI50 (DMS-273) | GI50 (SNB-78) | GI50 (KM-20L2) | GI50 (LXFL 529) | GI50 (XF498) | GI50 (RXF 631) |
| --- | --- | --- | --- | --- | --- | --- | --- | --- | --- |
| O=C1Sc2ccccc2C(=O)N2CCSC12 (stereo not drawn) | > 100 µM (inactive) | > 100 µM (inactive) | 25.6 µM (inactive) | > 100 µM (inactive) | > 100 µM (inactive) | > 100 µM (inactive) | > 100 µM (inactive) |  |  |
| Oc1cc(-c2ccc(Oc3ccccc3)cc2)nc2cc3c(cc12)OCO3 | > 100 µM (inactive) | > 100 µM (inactive) |  | > 100 µM (inactive) |  | > 100 µM (inactive) | > 100 µM (inactive) | > 100 µM (inactive) |  |
| CCOC(=O)C1=C(C(C)=O)CSC(c2ccccc2)=N1 | > 100 µM (inactive) | > 100 µM (inactive) | > 100 µM (inactive) | > 100 µM (inactive) | > 63.2 µM (inactive) | > 100 µM (inactive) |  | > 100 µM (inactive) |  |
| O=C(c1ccccc1O)c1cc(-c2ncc3c(=O)c4ccccc4oc3n2)c(-c2ccccc2O)[nH]c1=O | 25.5 µM (inactive) | 28.8 µM (inactive) | 33.3 µM (inactive) | 26.8 µM (inactive) | 34.2 µM (inactive) |  |  | 29.9 µM (inactive) |  |
| COc1cccc(-c2nc3c(C(=O)NCCN(C)C)cccc3[nH]2)c1 | 16.3 µM (inactive) | 15.3 µM (inactive) | 18.4 µM (inactive) | 11.3 µM (inactive) | 40.4 µM (inactive) | 14.4 µM (inactive) |  |  |  |
| Clc1ccc(CCn2cncn2)cc1 | > 100 µM (inactive) | > 100 µM (inactive) | > 100 µM (inactive) | > 100 µM (inactive) | > 100 µM (inactive) | > 100 µM (inactive) | > 100 µM (inactive) |  |  |
| COC(=O)C(CC(=O)c1cc2c(cc1I)OCO2)Cc1cc(OC)c(OC)c(OC)c1I (stereo not drawn) | > 100 µM (inactive) | 22.8 µM (inactive) | > 100 µM (inactive) | > 100 µM (inactive) |  | > 100 µM (inactive) | 12.2 µM (inactive) | > 100 µM (inactive) |  |
| COC(=O)C(C/C=C(\C)c1ccccc1)C(C)=O (stereo not drawn) | 59.8 µM (inactive) | 34.9 µM (inactive) | > 100 µM (inactive) | > 83.9 µM (inactive) | > 68.5 µM (inactive) | > 100 µM (inactive) |  | > 80.9 µM (inactive) |  |
| CC(=O)c1ccc(OCC(O)CO)cc1 (stereo not drawn) | > 100 µM (inactive) | 47 µM (inactive) | > 100 µM (inactive) | > 100 µM (inactive) | > 100 µM (inactive) | > 100 µM (inactive) | 51.8 µM (inactive) |  | > 100 µM (inactive) |
| O=C(CC1(O)C(=O)Nc2ccccc21)c1ccc2ccccc2c1 (stereo not drawn) | > 100 µM (inactive) | > 100 µM (inactive) |  | > 100 µM (inactive) | > 100 µM (inactive) | > 100 µM (inactive) | > 100 µM (inactive) | 93.8 µM (inactive) | > 100 µM (inactive) |
| COC(=O)CC(=O)OSc1ccccc1 |  | 11.6 µM (inactive) |  | 22.7 µM (inactive) |  | 20 µM (inactive) |  |  | 11.4 µM (inactive) |
| NS(=O)(=O)c1ccc(NC(=O)C2C(=O)C(=O)N(c3ccc(S(N)(=O)=O)cc3)C2=O)cc1 (stereo not drawn) | > 100 µM (inactive) | > 100 µM (inactive) | > 100 µM (inactive) | > 100 µM (inactive) | > 100 µM (inactive) | > 100 µM (inactive) | > 100 µM (inactive) |  | > 100 µM (inactive) |
| O=c1c2cc([N+](=O)[O-])ccc2sc2ccsc12 | > 100 µM (inactive) | > 100 µM (inactive) | > 100 µM (inactive) |  | > 100 µM (inactive) | > 100 µM (inactive) | 69.3 µM (inactive) | > 100 µM (inactive) | > 100 µM (inactive) |
| COC(=O)[C@]1(c2ccc(N(C)C)cc2OC)C[C@@H]2CCCN(CCc3c1[nH]c1ccccc31)C2 | 16.4 µM (inactive) | 16.6 µM (inactive) | 24.1 µM (inactive) | 20.5 µM (inactive) | 31 µM (inactive) | 17.1 µM (inactive) |  | 18.7 µM (inactive) |  |
| COc1cc(C2C(Cl)C(=O)N2NC(=O)c2ccc(NC(C)=O)cc2)cc(Br)c1O (stereo not drawn) | > 100 µM (inactive) |  | > 100 µM (inactive) |  |  |  | > 100 µM (inactive) |  |  |
| Cc1cccc(C)c1NC(=O)CCc1nnc(S)[nH]1 | > 100 µM (inactive) | > 100 µM (inactive) |  |  | > 100 µM (inactive) | > 100 µM (inactive) | > 100 µM (inactive) | > 100 µM (inactive) | > 100 µM (inactive) |
| CC(C)(C)c1nc2c(o1)/C(=N\c1ccc(F)cc1)c1ccccc1C2=O | 1.13 µM (inactive) | 0.902 µM (active) | 15.2 µM (inactive) | 1.73 µM (inactive) | 56 µM (inactive) | 17.1 µM (inactive) | 4.4 µM (inactive) | 1.71 µM (inactive) |  |
| CCCCCCCCOCC(O)COC(=O)CCCCCCC (stereo not drawn) | 70.8 µM (inactive) | > 100 µM (inactive) | > 100 µM (inactive) | 44.6 µM (inactive) |  | > 100 µM (inactive) | > 100 µM (inactive) |  | > 100 µM (inactive) |
| CC(=O)Nc1ccc(/C=C(\NC(=O)c2ccccc2)C(=O)NNS(=O)(=O)c2ccc(C)cc2)cc1 | > 100 µM (inactive) |  | > 100 µM (inactive) | 18.2 µM (inactive) | > 100 µM (inactive) | > 100 µM (inactive) | > 100 µM (inactive) | > 100 µM (inactive) |  |
| CCOC(=O)/C(=C/c1ccco1)P(=O)(OCC)OCC | > 100 µM (inactive) | > 100 µM (inactive) | > 100 µM (inactive) |  | > 100 µM (inactive) |  | > 100 µM (inactive) | > 100 µM (inactive) |  |
| O=C(c1ccco1)c1ccccc1C(=O)c1ccco1 | > 100 µM (inactive) | > 100 µM (inactive) | 61.5 µM (inactive) | > 100 µM (inactive) | > 100 µM (inactive) | > 100 µM (inactive) | > 100 µM (inactive) | > 100 µM (inactive) | > 100 µM (inactive) |
| O=C1c2ccccc2C2(O)NC(=S)N(c3ccccc3)C12O (stereo not drawn) | > 100 µM (inactive) | > 100 µM (inactive) | > 100 µM (inactive) |  | > 100 µM (inactive) | > 100 µM (inactive) | > 100 µM (inactive) | > 100 µM (inactive) |  |
| CC(=O)c1ccc(NC(=O)/C(=N\NC(N)=O)C(C#N)CC(C)(C)C=O)cc1 (stereo not drawn) | > 100 µM (inactive) | > 100 µM (inactive) |  | > 100 µM (inactive) | > 100 µM (inactive) | > 100 µM (inactive) | > 100 µM (inactive) | > 100 µM (inactive) |  |
| O=C(Nc1cccc(O)c1)C(=O)C1C(=O)NC(=S)NC1=O | > 100 µM (inactive) | > 100 µM (inactive) | > 100 µM (inactive) | > 100 µM (inactive) | > 100 µM (inactive) | > 100 µM (inactive) | > 100 µM (inactive) | > 100 µM (inactive) |  |
| Cc1ccc(C)c(NC(=O)C(=O)CC(=O)C2CCOC2=O)c1 (stereo not drawn) | > 100 µM (inactive) | > 100 µM (inactive) |  | > 100 µM (inactive) | > 100 µM (inactive) | > 100 µM (inactive) | > 100 µM (inactive) | > 100 µM (inactive) |  |
| CCOC(=O)[N-]c1ccc(S(=O)(=O)[O+](C)CCl)cc1.CCOC(=O)[N-]c1ccc(S(=O)(=O)[O+](C)CCl)cc1.NC(=O)N=O.NC(=O)OCCCl | > 100 µM (inactive) | > 100 µM (inactive) | > 100 µM (inactive) |  | > 100 µM (inactive) | > 100 µM (inactive) | > 100 µM (inactive) | > 100 µM (inactive) | > 100 µM (inactive) |
| Nc1ccc(N)c2c1C(=O)c1ccccc1C2=O | 95.5 µM (inactive) | 32.7 µM (inactive) | 22 µM (inactive) | 16 µM (inactive) | > 100 µM (inactive) | 14.4 µM (inactive) | 31.1 µM (inactive) | > 100 µM (inactive) | 20.4 µM (inactive) |
| Nc1ncnc2c1ncn2C1C=C(CO)C(O)C1O (stereo not drawn) | 40.9 µM (inactive) | 1.99 µM (inactive) | 24.3 µM (inactive) | 2.64 µM (inactive) | 30.9 µM (inactive) | 14.7 µM (inactive) | 16.7 µM (inactive) | 37.2 µM (inactive) | 12.6 µM (inactive) |
